Measurements: ChEMBL document CHEMBL1131390, “Inhibition of lipid peroxidation mediated by indolizines” (Bioorg Med Chem Lett, 1998)

Organism: Rattus norvegicus
Test: Compound was tested in vitro for inhibitory activity against lipid peroxidation after 30 minutes
Assay type: functional
Details: 0.5 h

| SMILES | IC50 [µM] |
| --- | --- |
| CC(=O)Oc1c(-c2ccccc2)c(-c2ccccc2)n2ccc(C(C)=O)cc12 | 5.3 |
| O=Cc1ccn2c(-c3ccccc3)c(-c3ccccc3)c(OC(=O)Nc3ccccc3)c2c1 | 3.2 |
| CC(=O)Oc1c(-c2ccccc2)c(-c2ccccc2)n2ccc(C=O)cc12 | 2.9 |
| CC(=O)Oc1c(-c2ccccc2)c(-c2ccccc2)n2ccc(C(=O)c3ccccc3)cc12 | 2.5 |
| COc1c(-c2ccccc2)c(-c2ccccc2)n2ccc(C=O)cc12 | 4.2 |
| COC(=O)Oc1c(-c2ccccc2)c(-c2ccccc2)n2ccc(C=O)cc12 | 2.6 |
| CC(=O)Oc1c(-c2ccccc2)c(-c2ccccc2)n2cc(C(C)=O)ccc12 | 3.5 |
| CC(=O)Oc1c(-c2ccccc2)c(-c2ccccc2)n2ccccc12 | 11.8 |
| CC(=O)Oc1c(-c2ccccc2)c(-c2ccccc2)n2ncccc12 | 3.1 |

Organism: Rattus norvegicus
Test: Compound was tested in vitro for inhibitory activity against lipid peroxidation at concentration 100 uM
Assay type: functional, organism-based
Details: not given

| SMILES | inhibition [%] |
| --- | --- |
| CC(=O)Oc1c(-c2ccccc2)c(-c2ccccc2)n2ncc3ccccc3c12 | 28 |
| CCCCCCCCCCCCCCCC(=O)Oc1c(-c2ccccc2)c(-c2ccccc2)n2ccc(C=O)cc12 | 9 |
